Data taken from ChEMBL document CHEMBL5214888, “The new opportunities in medicinal chemistry of fourth-generation EGFR inhibitors to overcome C797S mutation” (Eur J Med Chem, 2021).
pIC50: −log10 of the molar value.

Legend:
[1] = target: T1, Epidermal growth factor receptor (Homo sapiens, UniProt P00533); test: Inhibition of wild type EGFR (unknown origin)
[2] = target: T2, Epidermal growth factor receptor (Homo sapiens, UniProt P00533, L858R/T790M); test: Inhibition of EGFR L858R/T790M mutant (unknown origin)
T2 sequence (P00533 25-1210 T790M/L858R limits assumed): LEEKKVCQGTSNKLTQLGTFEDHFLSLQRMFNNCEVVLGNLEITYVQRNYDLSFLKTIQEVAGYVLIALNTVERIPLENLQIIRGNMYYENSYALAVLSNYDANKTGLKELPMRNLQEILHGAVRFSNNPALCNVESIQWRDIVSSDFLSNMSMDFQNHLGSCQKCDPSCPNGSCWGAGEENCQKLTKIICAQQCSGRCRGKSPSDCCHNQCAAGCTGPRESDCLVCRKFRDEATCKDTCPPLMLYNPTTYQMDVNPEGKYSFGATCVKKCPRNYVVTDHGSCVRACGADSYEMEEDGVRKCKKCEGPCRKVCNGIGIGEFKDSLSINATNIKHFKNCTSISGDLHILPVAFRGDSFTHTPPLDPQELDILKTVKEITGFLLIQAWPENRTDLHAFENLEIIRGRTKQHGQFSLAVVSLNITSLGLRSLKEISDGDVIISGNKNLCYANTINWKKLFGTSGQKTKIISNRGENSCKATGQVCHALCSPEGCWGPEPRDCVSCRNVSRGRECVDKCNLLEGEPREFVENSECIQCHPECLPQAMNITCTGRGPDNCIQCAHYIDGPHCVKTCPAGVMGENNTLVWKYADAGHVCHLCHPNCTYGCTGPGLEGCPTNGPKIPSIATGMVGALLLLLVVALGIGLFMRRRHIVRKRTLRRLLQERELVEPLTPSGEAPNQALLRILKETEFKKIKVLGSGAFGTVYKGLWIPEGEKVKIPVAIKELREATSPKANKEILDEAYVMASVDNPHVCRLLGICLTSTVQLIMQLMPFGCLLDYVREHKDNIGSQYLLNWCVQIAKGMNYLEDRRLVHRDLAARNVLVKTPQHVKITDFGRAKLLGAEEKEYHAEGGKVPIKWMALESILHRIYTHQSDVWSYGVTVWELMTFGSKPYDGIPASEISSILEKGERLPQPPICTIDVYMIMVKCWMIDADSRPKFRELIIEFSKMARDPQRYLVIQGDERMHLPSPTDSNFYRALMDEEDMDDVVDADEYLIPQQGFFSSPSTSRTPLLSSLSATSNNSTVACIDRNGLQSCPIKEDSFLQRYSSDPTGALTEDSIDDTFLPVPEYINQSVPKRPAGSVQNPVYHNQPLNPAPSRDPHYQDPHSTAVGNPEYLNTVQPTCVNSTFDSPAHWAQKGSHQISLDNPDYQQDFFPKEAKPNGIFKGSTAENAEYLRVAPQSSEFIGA

BaF3 [3] = test: Cytotoxicity against mouse BaF3 cells expressing human EGFR C797S/del19 mutant assessed as inhibition of in cell viability measured after 72 hrs by CellTiter-Glo assay; format: functional, cell-based; conditions: BaF3, 72 h
BaF3 [4] = test: Cytotoxicity against mouse BaF3 cells expressing human EGFR C797S/T790M/del19 mutant assessed as inhibition of in cell viability measured after 72 hrs by CellTiter-Glo assay; format: functional, cell-based; conditions: BaF3, 72 h
[5] = target: T1, Epidermal growth factor receptor; test: Inhibition of human wild type GST-tagged EGFR expressed in Sf9 cells assessed as substrate phosphorylation using TK-peptide as substrate incubated for 25 mins by HTRF assay
[6] = target: T2, Epidermal growth factor receptor; test: Inhibition of human GST-tagged EGFR L858R/T790M mutant expressed in Sf9 cells assessed as substrate phosphorylation using TK-peptide as substrate incubated for 20 mins by HTRF assay
BaF3 [7] = test: cells; conditions: Mus musculus
BaF3 [8] = test: cells; conditions: Mus musculus; remark: listed apart in the source
[9] = target: T3, Epidermal growth factor receptor (Homo sapiens, UniProt P00533, C797S/L858R/T790M); test: Inhibition of EGFR L858R/T790M/C797S mutant (unknown origin)
T3 sequence (P00533 25-1210 T790M/C797S/L858R limits assumed): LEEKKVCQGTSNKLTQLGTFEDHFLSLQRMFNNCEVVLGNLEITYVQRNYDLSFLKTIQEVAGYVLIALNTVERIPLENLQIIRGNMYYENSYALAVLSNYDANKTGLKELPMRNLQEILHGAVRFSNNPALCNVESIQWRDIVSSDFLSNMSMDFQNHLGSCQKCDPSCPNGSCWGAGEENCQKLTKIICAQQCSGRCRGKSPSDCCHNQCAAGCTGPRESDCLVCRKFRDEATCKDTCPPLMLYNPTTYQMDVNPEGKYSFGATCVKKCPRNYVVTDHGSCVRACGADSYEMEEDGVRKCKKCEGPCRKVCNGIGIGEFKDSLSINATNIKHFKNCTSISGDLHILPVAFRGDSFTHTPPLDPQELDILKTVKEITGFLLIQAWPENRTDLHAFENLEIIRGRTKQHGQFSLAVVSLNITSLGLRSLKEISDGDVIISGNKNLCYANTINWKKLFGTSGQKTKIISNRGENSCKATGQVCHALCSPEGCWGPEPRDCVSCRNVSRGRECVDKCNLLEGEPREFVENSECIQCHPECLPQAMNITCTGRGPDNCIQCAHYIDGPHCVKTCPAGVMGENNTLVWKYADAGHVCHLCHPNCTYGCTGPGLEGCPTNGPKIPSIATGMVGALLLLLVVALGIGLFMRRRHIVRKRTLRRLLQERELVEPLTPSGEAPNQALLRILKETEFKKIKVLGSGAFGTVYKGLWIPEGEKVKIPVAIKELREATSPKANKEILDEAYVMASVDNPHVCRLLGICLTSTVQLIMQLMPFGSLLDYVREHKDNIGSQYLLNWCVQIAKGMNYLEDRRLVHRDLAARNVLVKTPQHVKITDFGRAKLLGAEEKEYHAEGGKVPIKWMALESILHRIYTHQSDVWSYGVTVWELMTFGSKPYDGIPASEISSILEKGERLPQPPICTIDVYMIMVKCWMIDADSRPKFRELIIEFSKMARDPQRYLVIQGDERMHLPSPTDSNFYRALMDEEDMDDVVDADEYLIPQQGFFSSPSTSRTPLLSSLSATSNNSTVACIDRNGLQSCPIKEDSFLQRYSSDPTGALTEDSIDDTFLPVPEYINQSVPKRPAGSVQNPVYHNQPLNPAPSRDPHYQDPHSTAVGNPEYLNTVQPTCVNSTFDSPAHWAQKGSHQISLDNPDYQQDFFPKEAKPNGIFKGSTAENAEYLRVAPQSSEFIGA

[10] = target: T3, Epidermal growth factor receptor; test: Inhibition of human GST-tagged EGFR L858R/T790M/C797S mutant expressed in Sf9 cells assessed as substrate phosphorylation using TK-peptide as substrate incubated for 10 mins by HTRF assay
PC-9 [11] = test: Antiproliferative activity against human PC-9 cells harboring EGFR del19/T790M/C797S mutant assessed as inhibition of cell proliferation; format: functional, cell-based
A549 = test: Antiproliferative activity against human A549 assessed as inhibition of cell proliferation; format: functional, cell-based
PC-9 [12] = test: Antiproliferative activity against human PC-9 cells assessed as inhibition of cell proliferation; format: functional, cell-based
PC-9 [13] = test: Antiproliferative activity against human PC-9 cells harboring EGFR L858R/T790M/C797S mutant assessed as inhibition of cell proliferation; format: functional, cell-based
[14] = target: T4, Epidermal growth factor receptor (Homo sapiens, UniProt P00533, C797S/EX19DEL/T790M); test: Inhibition of human EGFR del19/T790M/C797S mutant assessed as enzyme remaining activity using poly-Glu-Tyr peptide substrate incubated for 2 hrs in presence of [gamma-33P]ATP by radiometric kinase assay
T4 sequence (P00533 whole entry, looked up, stated change not applied): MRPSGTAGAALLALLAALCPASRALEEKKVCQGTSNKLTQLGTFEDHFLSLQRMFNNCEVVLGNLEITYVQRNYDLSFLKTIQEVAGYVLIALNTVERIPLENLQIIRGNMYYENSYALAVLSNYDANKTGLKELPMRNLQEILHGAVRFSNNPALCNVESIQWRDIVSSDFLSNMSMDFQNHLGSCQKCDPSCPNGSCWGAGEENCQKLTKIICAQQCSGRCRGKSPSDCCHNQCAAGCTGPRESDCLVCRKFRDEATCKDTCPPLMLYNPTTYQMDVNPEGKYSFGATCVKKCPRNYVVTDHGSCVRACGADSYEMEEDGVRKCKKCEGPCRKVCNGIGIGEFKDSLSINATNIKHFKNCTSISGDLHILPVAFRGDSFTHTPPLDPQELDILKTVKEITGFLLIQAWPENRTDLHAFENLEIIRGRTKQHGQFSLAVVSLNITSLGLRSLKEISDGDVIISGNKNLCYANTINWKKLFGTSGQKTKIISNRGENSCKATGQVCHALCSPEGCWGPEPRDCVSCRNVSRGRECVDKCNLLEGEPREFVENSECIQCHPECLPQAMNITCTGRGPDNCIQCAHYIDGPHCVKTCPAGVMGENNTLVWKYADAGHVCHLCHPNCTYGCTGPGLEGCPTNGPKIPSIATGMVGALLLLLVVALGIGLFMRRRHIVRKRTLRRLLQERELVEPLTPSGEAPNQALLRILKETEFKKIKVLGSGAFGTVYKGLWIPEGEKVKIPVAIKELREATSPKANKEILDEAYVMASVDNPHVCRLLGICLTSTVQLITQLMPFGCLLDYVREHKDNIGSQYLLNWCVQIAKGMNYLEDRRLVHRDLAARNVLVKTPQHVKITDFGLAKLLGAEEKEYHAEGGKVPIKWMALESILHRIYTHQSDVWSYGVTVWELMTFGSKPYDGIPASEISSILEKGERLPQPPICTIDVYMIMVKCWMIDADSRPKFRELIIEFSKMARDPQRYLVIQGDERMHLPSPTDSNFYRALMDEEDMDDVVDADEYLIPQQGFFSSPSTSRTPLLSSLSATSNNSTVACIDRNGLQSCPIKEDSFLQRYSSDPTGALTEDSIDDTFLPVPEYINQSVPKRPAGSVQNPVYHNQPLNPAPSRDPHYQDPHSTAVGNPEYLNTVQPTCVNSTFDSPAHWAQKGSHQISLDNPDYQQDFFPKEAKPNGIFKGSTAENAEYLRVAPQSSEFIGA

BaF3 [15] = test: cells; conditions: Mus musculus, BaF3, 72 h
[16] = target: T4, Epidermal growth factor receptor; test: Inhibition of human EGFR del19/T790M/C797S mutant using ATP-labelled peptide substrate by HTRF assay
[17] = target: T4, Epidermal growth factor receptor; test: Inhibition of EGFR del19/T790M/C797S triple mutant (unknown origin) phosphorylation expressed in mouse BaF3 cells by fluorescence based microplate reader analysis; format: cell-based
BaF3 [18] = test: Antiproliferative activity against mouse BaF3 cells harboring EGFR del19/T790M/C797S triple mutant assessed as inhibition of cell proliferation by celltiter-Glo assay; format: functional, cell-based
[19] = Half life in C57Bl/6 mouse at 3 mg/kg, iv and measured upto 8 hrs by LC-MS/MS analysis; format: ADME, organism-based; conditions: in vivo
[20] = Cmax in C57Bl/6 mouse plasma at 20 mg/kg, po and measured upto 8 hrs by LC-MS/MS analysis; format: ADME, organism-based; design: dose 20 mg/kg, time < 8 hrs, route po
[21] = Oral bioavailability in C57Bl/6 mouse plasma at 20 mg/kg and measured upto 8 hrs by LC-MS/MS analysis; format: ADME, organism-based
[22] = AUClast in C57Bl/6 mouse at 3 mg/kg, iv and measured upto 8 hrs by LC-MS/MS analysis; format: ADME, organism-based; design: dose 3 mg/kg, time < 8 hrs, route iv; conditions: in vivo

T1 sequence (P00533 whole entry): as the sequence (P00533 whole entry, looked up, stated change not applied) above

Work on `Oc1ccc(-c2nc(-c3ccc(F)cc3)c(-c3ccnc4c3CC(c3ccccc3)N4)[nH]2)cc1` (centres undefined) yielded a pIC50 [1] of 7.31 and a pIC50 [2] of 6.04.

For `COc1cc(N2CCC(N(C)C)CC2)ccc1Nc1ncc(Cl)c(Nc2ccccc2P(C)(C)=O)n1`, the pIC50 (BaF3 [3]) was 7.55 and the pIC50 (BaF3 [4]) was 7.23.

For `CCC(=O)Nc1cccc(-c2c(-c3ccccc3)[nH]c3ncnc(OC)c23)c1`, the pIC50 [5] was 5.92 and the pIC50 [6] was 6.75.

Molecule `CC(=O)N[C@H]1CC[C@@H](N2C(=O)N(c3ccccc3Cl)Cc3cnc(Nc4ccc(N5CCN(C)CC5)c(C)c4)nc32)CC1` has a pIC50 (BaF3 [7]) of 6.50 and a pIC50 (BaF3 [8]) of 6.54.

For `OCCc1ccc(-c2nc(-c3ccc(F)cc3)c(-c3ccnc4c3CC(c3ccccc3)N4)[nH]2)cc1` (centres undefined), the pIC50 [1] was > 9.52, the pIC50 [2] was 7.90 and the pIC50 [9] was 8.12.

In the case of `CCC(=O)Nc1cccc(-c2c(-c3ccc(N4CCN(C)CC4)cc3)[nH]c3ncnc(OC(C)C)c23)c1`, the pIC50 [10] was 8.07, the pIC50 [5] was 10.00 and the pIC50 [6] was 10.00.

Work on `COc1ccc(-c2c3c4cc(OCCCN(C)C)c(OCCCN(C)C)cc4oc(=O)c3n3ccc4cc(O)c(OC)cc4c23)cc1O` yielded a pIC50 (PC-9 [11]) of 6.13, a pIC50 (A549) of 5.54 and a pIC50 (PC-9 [12]) of 6.18. The pIC50 (PC-9 [13]) was 6.22.

Molecule `N#Cc1ccc(O)c(-c2nc(NCc3cnccn3)c3ccccc3n2)c1` has a pIC50 [14] of 7.77.

`COc1cc(N2CCC(N)CC2)ccc1Nc1ncc(Cl)c(-c2c[nH]c3ccccc23)n1` gave a pIC50 (BaF3 [3]) of 7.13 and a pIC50 (BaF3 [4]) of 6.88.

For `COC(=O)c1ccc(O)c(-c2nc(NCc3cccnc3)c3ccccc3n2)c1`, the pIC50 [14] was 7.34.

With `O=C(Nc1nccs1)C(c1ccccc1)N1Cc2ccc(-c3ccc4[nH]ccc4c3)cc2C1=O` (centres undefined) the pIC50 (BaF3 [15]) was 6.05.

`N#Cc1ccc(O)c(-c2nc(NCc3cccnc3)c3ccccc3n2)c1` gave a pIC50 [14] of 7.75.

`COc1cc(N2CCC(N3CCN(C)CC3)CC2)ccc1Nc1ncc(Cl)c(Nc2ccccc2P(C)(C)=O)n1` [BRIGATINIB] showed a pIC50 (BaF3 [3]) of 7.40.

With `Cc1cc(Nc2ncc(Cl)c(Nc3ccccc3S(=O)(=O)C(C)C)n2)c(OC(C)C)cc1C1CCNCC1` [CERITINIB] the pIC50 (BaF3 [4]) was 6.11.

In the case of `OCCCCc1ccc(-c2nc(-c3ccc(F)cc3)c(-c3ccnc4c3CC(c3ccccc3)N4)[nH]2)cc1` (centres undefined), the pIC50 [1] was > 9.52, the pIC50 [2] was 8.08 and the pIC50 [9] was 8.05.

For `COc1cc(N2CCC(N3CCN(C)CC3)CC2)ccc1Nc1ncnc(Nc2ccccc2S(=O)(=O)C(C)C)n1` [ASP-3026], the pIC50 (BaF3 [3]) was 6.49 and the pIC50 (BaF3 [4]) was 5.82.

With `COc1cc(N2CCC(N3CCN(CCO)CC3)CC2)ccc1Nc1ncc(Cl)c(Nc2ccccc2NS(C)(=O)=O)n1` the pIC50 [16] was 9.10.

Work on `CCC(=O)Nc1cccc(-c2c(-c3ccc(N4CCN(C)CC4)cc3)[nH]c3ncn(C4CCCCC4)c(=O)c23)c1` yielded a pIC50 [10] of 7.66, a pIC50 [5] of 9.40 and a pIC50 [6] of 9.40.

In the case of `C=C(C)c1cnc(Nc2ccc(N3CCC4(CCN(C)CC4)CC3)c(C)c2)nc1Nc1ccccc1P(C)(C)=O`, the pIC50 [17] was > 7.00 and the pIC50 (BaF3 [18]) was > 7.00.

With `CSc1nc(-c2ccc(F)cc2)c(-c2ccnc(Nc3ccccc3)c2)[nH]1` the pIC50 [9] was < 6.83.

For `Cc1cc(Nc2ncc(Cl)c(Nc3ccccc3P(C)(C)=O)n2)ccc1N1CCC2(CC1)CN(C)C2`, the pIC50 [17] was > 7.00 and the pIC50 (BaF3 [18]) was > 7.00.

In the case of `CCCCOc1ncnc2[nH]c(-c3ccc(N4CCN(C)CC4)cc3)c(-c3cccc(NC(=O)CC)c3)c12`, the pIC50 [10] was 8.03, the pIC50 [5] was > 10.00 and the pIC50 [6] was > 10.00.

In the case of `CN1CCC2(CC1)CCN(c1ccc(Nc3ncc(Cl)c(Nc4ccccc4P(C)(C)=O)n3)cc1Br)CC2`, the pIC50 [17] was > 7.00 and the pIC50 (BaF3 [18]) was > 7.00.

Work on `O=C(Nc1nccs1)C(c1cc(F)ccc1O)N1Cc2ccc(-c3ccc(N4CCNCC4)cc3)cc2C1=O` (centres undefined) yielded a half-life [19] of 3 h, a Cmax [20] of 1100 nM and a bioavailability [21] of 3%. It also gave an AUC(0-t) at 8 h [22] of 12100 ng·h/mL.

With `CCC(=O)Nc1cccc(-c2c(-c3ccc(N4CCN(C)CC4)cc3)[nH]c3ncnc(OCC(C)C)c23)c1` the pIC50 [10] was 8.07, the pIC50 [5] was 9.70 and the pIC50 [6] was > 10.00.

`Oc1ccccc1-c1nc(NCc2cccnc2)c2ccccc2n1` gave a pIC50 [14] of 6.83.

Molecule `COc1cc(N2CCC(N3CCN(C)CC3)CC2)ccc1Nc1ncc(Cl)c(Nc2ccccc2NS(C)(=O)=O)n1` has a pIC50 [16] of 9.70.
